Test results reported in PMC9099256, “Toward Novel [^18F]Fluorine-Labeled Radiotracers for the Imaging of α-Synuclein Fibrils” (Frontiers in Aging Neuroscience, 2022).
Where “and” joins values, the source holds several entries; their conditions need not be identical. Identical values can stand only once.

Columns and labels:
[1] = target: T1, human recombinant α-syn fibrils (Homo sapiens, UniProt P37840); assay: Competition binding assay against [3H]DCVJ, α-syn fibrils; settings: for selectivity over Aβ and tau aggregates: abstract; for Ki: non-radioactive ligand vs [3H]DCVJ 10 nM, α-syn fibrils 125 nM, 2 h 37°C
T1 construct: made in house; host or cells: E. coli BL21(DE3), plasmid pET11-D
Description: The competitor reaction was diluted with 20 mM Tris-HCl, pH 7.4 to a final volume of 200 μL per well. After incubation for 2 h at 37°C, the binding mixtures were filtered through a Perkin Elmer GF/B glass filter via a TOMTEC cell harvester and immediately washed three times with 1 mL of deionized water. Filters containing the bound ligands were dried and mixed with 3 mL of Betaplate scint solution (PerkinElmer Life Sciences) and incubated for 2 h before counting in a Wallac 1450 MicroBeta TriLux Liquid Scintillation Counter (PerkinElmer Life Sciences). For the determination of the inhibition constants, data were analyzed using GraphPad Prism software (version 7.0) to obtain IC50 values by fitting the data to the equation Y = bottom + (top - bottom)/(1 + 10(x - log IC50). Ki values were calculated from IC50 values using the equation Ki = IC50/(1 + [radioligand]/Kd).
(§1) The binding affinity of [^18F]d2, [^18F]d4, [^18F]d6, and [^18F]d8 to human recombinant α-syn, Aβ, and tau fibrils was assayed in a competition binding assay with non-radioactive ligands d2, d4, d6, and d8 against tritiated 9-(2,2-dicyanovinyl)julolidine (DCVJ) (Figure 3 and Supplementary Material). […] Although being a pan tracer makes DCVJ a less suitable tracer for the in vivo imaging of any of the protein aggregates, it makes it, however, a useful tool for evaluating the usefulness of other ligands as tracers for various proteinopathies in competitive binding experiments, as well as for scanning the fibril-binding sites in a set of in silico blind dockings.
Purified recombinant α-syn monomer (10 mg/mL) was incubated in PBS, pH 7.4, at 37 °C by shaking at 900 rpm in an Eppendorf Thermomixer for up to 84 hours. To determine the concentration of fibrils, the fibril reaction mixer was centrifuged at 12000 g for 5 min and the fibril pellet was washed 3 times with 20 mM Tris-HCl pH 7.4 to separate fibrils from monomer. Supernatant from all the centrifugation steps were combined and the concentration of monomer in the supernatant was determined using SDS-PAGE. The concentration of the fibrils formed was determined by subtracting the mount of α-syn monomer in the supernatant from initial amount use for fibrillation process.

Aβ1–42 fibrils = target: T2, Aβ1–42 fibrils (Homo sapiens, UniProt P05067); assay: Competition binding assay against [3H]DCVJ, Aβ1–42 fibrils; settings: for Ki: vs [3H]DCVJ 10 nM, fibrils 125 nM
T2 construct: 1 mg of β-amyloid1−42 peptide was dissolved in 50 μL DMSO
T2 sequence (P05067 672-713): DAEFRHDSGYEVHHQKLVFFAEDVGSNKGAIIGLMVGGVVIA
Description: (§2) Fixed concentrations (125 nM) of Aβ1–42, tau aggregates, and [^3H]DCVJ (10 and 20 nM, respectively) were used with different concentrations of cold d2, d4, d6, and d8 from 1 to 1,000 nM. The experiment was performed in quadruplicates for each concentration. Further procedures followed the same already described in section “Competition Binding Assays for α-Syn Fibrils.”
as §1
1 mg of β-amyloid1−42 peptide was dissolved in 50 μL DMSO. 925 μL of Milli-Q water was added to the above. Then 25 μL of 1M Tris HCl, pH 7.4 was added to bring the final peptide concentration to 1 mg/mL. The dissolved peptide was then incubated for 30 h at 37°C with shaking at 900 rpm. To determine the concentration of fibrils, the fibril reaction mixer was centrifuged at 12000 g for 5 min and the fibril pellet was washed three times in 20 mM Tris-HCl pH 7.4 to separate fibrils from monomer. Supernatant from all centrifugation steps were combined and the concentration of monomer in the supernatant was determined in a BCA assay, alongside a BSA standard curve. The concentration of the fibrils formed was determined by subtracting the amount of β-amyloid1−42 monomer in the supernatant from initial amount used for fibrillation.

tau fibrils = tau fibrils (Homo sapiens, UniProt P10636); assay: Competition binding assay against [3H]DCVJ, tau fibrils; settings: for Ki: vs [3H]DCVJ 20 nM, fibrils 125 nM
Sequence of tau fibrils (P10636 2-758): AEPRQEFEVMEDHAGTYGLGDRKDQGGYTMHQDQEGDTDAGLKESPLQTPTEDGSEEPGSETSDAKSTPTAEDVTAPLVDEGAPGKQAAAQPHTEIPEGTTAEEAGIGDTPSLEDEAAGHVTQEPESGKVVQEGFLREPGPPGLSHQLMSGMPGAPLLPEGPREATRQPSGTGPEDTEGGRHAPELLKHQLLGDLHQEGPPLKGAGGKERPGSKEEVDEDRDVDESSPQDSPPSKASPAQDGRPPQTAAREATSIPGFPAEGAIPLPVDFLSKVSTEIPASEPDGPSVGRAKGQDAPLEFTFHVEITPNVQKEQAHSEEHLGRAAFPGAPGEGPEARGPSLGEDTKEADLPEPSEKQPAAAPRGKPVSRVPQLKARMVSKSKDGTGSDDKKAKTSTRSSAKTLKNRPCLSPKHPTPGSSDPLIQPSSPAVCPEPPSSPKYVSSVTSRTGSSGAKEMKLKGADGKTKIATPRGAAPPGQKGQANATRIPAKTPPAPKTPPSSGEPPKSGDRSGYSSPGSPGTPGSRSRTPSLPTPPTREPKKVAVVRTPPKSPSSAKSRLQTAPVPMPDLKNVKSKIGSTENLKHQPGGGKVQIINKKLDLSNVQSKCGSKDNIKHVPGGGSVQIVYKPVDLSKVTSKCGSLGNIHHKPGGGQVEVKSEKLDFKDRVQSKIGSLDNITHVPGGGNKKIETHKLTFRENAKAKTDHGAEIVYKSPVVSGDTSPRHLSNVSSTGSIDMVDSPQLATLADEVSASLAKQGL
Description: as §2, §1
Recombinant tau monomer was dissolved at 300 µg/mL concentration in 20 mM Tris HCl pH 8.0, 100 mM NaCl, 25 μM low molecular weight heparin, and 0.5 mM DTT. The dissolved peptide was incubated at 37°C for 48 hours with shaking at 900 rpm. To determine the concentration of fibrils, the fibril reaction mixer was centrifuged at 12000 g for 5 min and the fibril pellet was washed 3 times in 20 mM Tris-HCl pH 7.4 to separate fibrils from monomer. Supernatants from all centrifugation steps were combined and the concentration of monomer in the supernatant was determined using BCA assay, alongside a BSA standard curve. The concentration of the fibrils formed was determined by subtracting the amount of tau monomer in the supernatant from initial amount used for fibrillation.

[2] = Log D determination (octanol/PBS pH 7.4); assay type: physicochemical; settings: for reduction of log D versus benzodioxole counterpart: [18F]d4 vs [18F]d2, [18F]d8 vs [18F]d6; for logD: octanol/PBS pH 7.4, n = 3
Description: To a solution of [^18F]d2, [^18F]d4, [^18F]d6, and [^18F]d8 (0.5–1.0 MBq) in 0.5 mL octanol, 0.5 mL PBS (pH 7.4) was added in a 1.5 mL Eppendorf vial. The vials were vigorously vortexed for 10 min. To achieve efficient phase separation, the vials were centrifuged for 10 min at 13,000 rpm in a Heraeus Biofuge 13 centrifuge. Aliquots (100 μL) of the aqueous and the octanol phase were collected carefully and the amount radioactivity in the respective samples was quantified using a γ-counter. The log octanol/PBS values were calculated from the means of n = 3 separate determinations.

[3] = In vitro plasma protein binding (ultrafiltration); assay type: in vitro ADME, human; settings: for fp relative to benzodioxole counterpart: [18F]d8 vs [18F]d6, [18F]d4 vs [18F]d2; for fp (free plasma fraction): human plasma, ultrafiltration, n = 3
Description: To estimate the free fraction (fp) of the radioligands in the plasma, an ultrafiltration method was used. Approximately 1 MBq of [^18F]d2, [^18F]d4, [^18F]d6, and [^18F]d8 were added to 450 μL of Seronorm Human plasma (Invicon GmbH, Munich, Germany), and the mixture was incubated for 10 min. After incubation, 150 μL of plasma was transferred into 3 ultrafiltration tubes (Centrifree YM-30; cutoff 30,000 MW; Millipore) and centrifuged at 8,000 rpm for 10 min. Equal aliquots of the ultrafiltrate (Cfree), and of the plasma (Ctotal) were counted for their radioactivity with a γ-counter. The fp of the radioligands was calculated as fp = Cfree/Ctotal (n = 3).

[4] = Biodistribution experiments; assay type: in vivo, healthy C57BL/6J mice; settings: for brain uptake at 5 min p.i. / brain uptake at 60 min p.i.: i.v.
Description: The ethanol solutions containing the tracers [^18F]d2, [^18F]d4, [^18F]d6, and [^18F]d8 were diluted with DMSO, Tween-20, and saline added consecutively to achieve a final concentration of 2.4, 2.4, and 0.4% of ethanol, DMSO, and Tween-20, respectively. The pH was adjusted with 0.05 N aqueous sodium hydroxide solution. 1.5–2.5 MBq of [^18F]d2, [^18F]d4, [^18F]d6, and [^18F]d8 prepared in the above solvent mixture were administered to the mice via the caudal vein under isoflurane anesthesia. The mice were sacrificed at 5 and 60 min p.i. The following organs/tissues were extracted: blood, heart, lung, liver, stomach, pancreas, colon, small intestine, kidney, muscle, bone, tail, and the brain. The radioactivity in the pre-weighed tissue samples was determined using a γ-counter. Data are expressed as a percent of the injected dose per gram tissue (% ID/g; mean ± sd, n = 3).

[5] = In vivo PET-MRI dynamic scan with biodistribution; design: species or system healthy C57BL/6J mice; settings: healthy mice, i.v., biodistribution after PET dynamic scan
Description: For PET imaging [^18F]d6 and [^18F]d8 were prepared as described in section “Biodistribution Experiments” and ∼11 MBq was injected via the caudal vein in the mice (n = 3 for each tracer). PET was recorded on nanoScan PET/MRI (Mediso Medical Imaging System) under isoflurane anesthesia. PET was continuously recorded in list mode for 120 min and consisted of 36 frames (1 × 60 s; 30 × 10 s; 1 × 600 s; 1 × 900 s; and 3 × 1800 s) while anesthesia was maintained. Data were reconstructed using Nucline nanoScan 3.00.021.0000 software, employing a three-dimensional ordered subset expectation maximum (OSEM3D) algorithm without a scatter and attenuation correction. Tissue time–activity curves (TACs) were obtained by projecting the defined ROI onto all frames of the dynamic PET scans. At 2 h after the PET dynamic scan, the mice were promptly euthanized, the rest of the protocol followed as already described in section “Biodistribution Experiments.”

[6] = Metabolite experiments (brain and plasma, 20 min p.i.); assay type: in vivo, healthy mice
Description: Tracers [^18F]d6 and [^18F]d8 were prepared as already described above in section “Biodistribution Experiments.” About 80–120 MBq of the tracers were injected via the caudal vein in the mice (n = 3 per tracer). At 20 min p.i., the animals were euthanized, and the needed tissues were extracted and placed on dry ice. To separate plasma from the blood cells, the blood samples were first centrifuged 13,000 rpm for 10 min, then acetonitrile acidified with 1% trifluoroacetic acid (TFA) (10 min, 4°C) was added to the centrifugate to precipitate the plasma proteins, followed by another centrifugation as already described, and ultrafiltration using ultrafiltration tubes (Centrifree YM-30; cutoff 30,000 MW; Millipore). A 10 μL of 1 M DMSO solution of the cold references was added to the centrifugate which was subsequently analyzed by RP-HPLC. The brain was frozen in liquid nitrogen and homogenized with a ball mill. A mixture of acetonitrile and DMSO (5:1) with 1% TFA containing the cold references of the tracers was added to the homogenate and mixed. The suspension was centrifuged. The supernatant was then filtered using ultrafiltration tubes as already described, the resulting filtrate was subsequently analyzed by RP-HPLC.

Row | Compound | selectivity over Aβ and tau aggregates [1] | Ki [1] | Ki (Aβ1–42 fibrils) | Ki (tau fibrils) | logD [2] | fp (free plasma fraction) [3] | brain uptake at 5 min p.i. ([4]; healthy mice, 5 min p.i.) | brain uptake at 60 min p.i. ([4]; healthy mice) | other results
1 | N#CC(C#N)=Cc1cc2c3c(c1)CCCN3CCC2 [DCVJ, 9-(2,2-dicyanovinyl)julolidine, reference compound] |  |  |  |  |  |  |  |  | Kd ([1]; radioligand/pan-amyloid ligand): 4.42 nM; Kd (Aβ1–42 fibrils; radioligand/pan-amyloid ligand, read-out: Kd for Aβ): 8.9 nM; Kd (tau fibrils; radioligand/pan-amyloid ligand): 15.6 nM
2 | COc1ccc(-c2csc(-c3nc(-c4ccc5c(c4)OCO5)cs3)n2)cc1F [d2, 4-(benzo[d][1,3]dioxol-5-yl)-4'-(3-fluoro-4-methoxyphenyl)-2,2'-bithiazole] | > 200 fold | 1.22 nM | 242 nM | > 1000 nM |  |  |  |  | selectivity over Aβ [1]: about 200 fold; selectivity over tau [1]: ~1,000 fold
3 | COc1ccc(-c2csc(-c3nc(-c4ccc5c(c4)OCO5)cs3)n2)cc1[18F] [[^18F]d2, 4-(benzo[d][1,3]dioxol-5-yl)-4′-(3-[^18F]fluoro-4-methoxyphenyl)-2,2′-bithiazole] |  |  |  |  | 3.1 ± 0.09 | 0.25 ± 0.01% | 1.58 %ID/g | 1.93 %ID/g | 
4 | COc1ccc(-c2csc(-c3nc(-c4cnc5c(c4)OCO5)cs3)n2)cc1[18F] [[^18F]d4, 6-(4′-(3-[^18F]fluoro-4-methoxyphenyl)-[2,2′-bithiazol]-4-yl)-[1,3]dioxolo[4,5-b]pyridine] |  |  |  |  | 3 ± 0.04 | 0.45 ± 0.03% | 4.63 %ID/g | 3.86 %ID/g | reduction of log D versus benzodioxole counterpart [2]: approximately 3.2%; fp relative to benzodioxole counterpart [3]: ~2 times
5 | COc1ccc(-c2csc(-c3nc(-c4cnc5c(c4)OCO5)cs3)n2)cc1F [d4, 6-(4'-(3-fluoro-4-methoxyphenyl)-[2,2'-bithiazol]-4-yl)-[1,3]dioxolo[4,5-b]pyridine] | > 200 fold | 0.66 nM | 275 nM | > 1000 nM |  |  |  |  | 

Continued, in another order:

Row | selectivity over Aβ and tau aggregates [1] | Ki [1] | Ki (Aβ1–42 fibrils) | Ki (tau fibrils) | logD [2] | fp (free plasma fraction) [3] | brain uptake at 5 min p.i. ([4]; healthy mice, 5 min p.i.) | brain uptake at 60 min p.i. ([4]; healthy mice) | Compound | other results
6 |  |  |  |  | 2.6 ± 0.09 | 0.85 ± 0.02% | 5.13 %ID/g | ~1 %ID/g and 1.07 %ID/g | [18F]c1ccc(-c2csc(-c3nc(-c4cnc5c(c4)OCO5)cs3)n2)cn1 [[^18F]d8, 6-(4′-(6-[^18F]fluoropyridin-3-yl)-[2,2′-bithiazol]-4-yl)-[1,3]dioxolo[4,5-b]pyridine] | reduction of log D versus benzodioxole counterpart [2]: ~7.1%; fp relative to benzodioxole counterpart [3]: about 6 times; reduction in brain concentration at 5 min p.i. versus [18F]d6 ([4]; healthy mice, 5 min p.i.): 11.4%; brain uptake in mice ([4]; mice, time not stated): > 4 % ID/g; brain uptake at 120 min p.i. [5]: < 1 %ID/g and 0.58 %ID/g; brain radiometabolites ([6]; healthy mice): no brain radiometabolites; parent tracer in brain content ([6]; mice, brain homogenate): > 99%; parent tracer remaining in the plasma (in vivo stability) ([6]; mice, plasma): > 60%
7 | > 200 fold | 1.21 nM | 237 nM | 966 nM |  |  |  |  | Fc1ccc(-c2csc(-c3nc(-c4ccc5c(c4)OCO5)cs3)n2)cn1 [d6, 4-(benzo[d][1,3]dioxol-5-yl)-4'-(6-fluoropyridin-3-yl)-2,2'-bithiazole] | 
8 | > 200 fold | 0.1 nM | 386 nM | > 1000 nM |  |  |  |  | Fc1ccc(-c2csc(-c3nc(-c4cnc5c(c4)OCO5)cs3)n2)cn1 [d8, 6-(4'-(6-fluoropyridin-3-yl)-[2,2'-bithiazol]-4-yl)-[1,3]dioxolo[4,5-b]pyridine] | 
9 |  |  |  |  | 2.8 ± 0.09 | 0.14 ± 0.02% | 5.79 %ID/g | 1.75 %ID/g | [18F]c1ccc(-c2csc(-c3nc(-c4ccc5c(c4)OCO5)cs3)n2)cn1 [[^18F]d6, 4-(benzo [d][1,3]dioxol-5-yl)-4′-(6-[^18F]fluoropyridin-3-yl)-2,2′-bithiazole] | brain uptake at 120 min p.i. [5]: 1.04 %ID/g
